Data from US9931367B2, “Uses of cistanche tubulosa extract and isoacteoside in protecting muscle” (SINPHAR TIAN-LI PHARMACEUTICAL CO., LTD. (HANGZHOU), priority 2016, dated 2018).

Legend:
[1] = test system: C2C12 cells with TNF-α induced injury; test: Protection of C2C12 cells against TNF-α induced injury (survival rate, MMP, intracellular ROS); format: cell-based, mice; details: pre-treated 6 h, then 10 ng/mL TNF-α 4 days
Description: C2C12 cells were cultured in H-DMEM medium until 80% confluence was attained. Thereafter, the cells were separated into eleven groups, wherein seven groups thereof were provided with the Cistanche tubulosa extract (CIS) solution (dissolved in DMSO) to provide final concentrations of 0, 1, 5, 10, 50, 100, 500 μg/mL, respectively, and then pre-treatment was carried out for 6 hours; the other three groups were provided with branched chain amino acids (BCAA; served as a positive control) to provide final concentrations of 0.1, 1 or 10 μg/mL respectively, and then pre-treatment was carried out for 6 hours; thereafter, the mediums of the above ten groups (seven groups provided with CIS and three groups provided with BCAA) were replaced by differentiation mediums supplemented with 2% horse serum, and TNA-α was then added into those mediums to provide a final concentration of 10 ng/mL, and then co-treated with differentiation medium for 4 days; the last group served as a control group, which was not treated with the Cistanche tubulosa extract, BCAA, or TNA-α. Finally, the survival rates, MMPs and intracellular ROSs of the C2C12 cells in each group were measured. The control group served as a basis for calculating the relative survival rates, MMPs, and intracellular ROSs of the other groups to determine the effective concentration of Cistanche tubulosa extract for providing a protective effect against the TNF-α induced muscle cell injury. The results are shown in FIG. 3 and FIG. 4 (all the data are presented as average values±SEM, n=6, analyzed with a t-test, *p<0.05, **p<0.01, ***p<0.001).
According to the results of Example 1, echinacoside (Ech), verbascoside (VB) and isoacteoside (Iso) are the main ingredients of the Cistanche tubulosa extract. To investigate whether the echinacoside, verbascoside and isoacteoside have the effect of protecting muscles, the echinacoside, verbascoside and isoacteoside (all purchased from ChromaDex company, U.S.) were dissolved in DMSO to provide a echinacoside solution, a verbascoside solution and a isoacteoside solution. C2C12 cells were cultured in H-DMEM medium until 80% confluence was attained. Thereafter, the cells were separated into eighteen groups and treated as follows: • (1) Control group: cells were cultured in H-DMEM medium for 6 hours; thereafter the medium was replaced by a differentiation medium supplemented with 2% horse serum, and the cells were cultured for 4 days. • (2) TNF-α group: cells were cultured in H-DMEM medium for 6 hours; thereafter the medium was replaced by a differentiation medium supplemented with 2% horse serum, and TNF-α was then added into the medium (the final concentration was 10 ng/mL) to carry out a co-treatment for 4 days. • (3) TNF-α+echinacoside group (6 groups): the echinacoside solution was added into H-DMEM mediums to provide final concentrations of 1, 5, 10, 50, 100, or 500 μg/mL, respectively. The cells were pre-treated with the above mediums for 6 hours. Thereafter, the mediums were replaced by differentiation mediums supplemented with 2% horse serum, and TNF-α was then added into the mediums (the final concentration was 10 ng/mL) to carry out co-treatments for 4 days. • (4) TNF-α+verbascoside group (5 groups): the verbascoside solution was added into H-DMEM mediums to provide final concentration of 1, 5, 10, 50, or 100 μg/mL, respectively. The cells were pre-treated with the above mediums for 6 hours. Thereafter, the mediums were replaced by differentiation mediums supplemented with 2% horse serum, and TNF-α was then added into the mediums (the final concentration was 10 ng/mL) to carry out co-treatments for 4 days. • (5) TNF-α+isoacteoside group (5 groups): the isoacteoside solution was added into H-DMEM mediums to provide final concentrations of 1, 5, 10, 50, or 100 μg/mL, respectively. The cells were pre-treated with the above mediums for 6 hours. […]

[2] = test system: C2C12 cells; test: Establishment of TNF-α induced muscle cell injury model (MMP, intracellular ROS); format: cell-based, mice; details: 4 days, relative to 0 ng/mL group
Description: Firstly, C2C12 cells (i.e., muscle cells of mice, purchased from ATCC) were cultured in H-DMEM medium (purchased from Sigma company) until 80% confluence was attained (i.e., the mixed cell monolayer comprises 80% of area). Thereafter, the cells were separated into four groups, and the mediums of all the groups were replaced by differentiation mediums supplemented with 2% horse serum. TNF-α (purchased from Sigma company) was then added into those mediums to provide final concentrations of 0, 2, 5, 10 ng/mL respectively. After being co-treated with the differentiation medium and TNF-α for 4 days, the mitochondrial membrane potential (MMP) and intracellular reactive oxidative stress (ROS) of the C2C12 cells were measured to serve as the index for model evaluation. Accordingly, a TNF-α induced muscle cell injury model was established. Finally, the group that was not treated with TNF-α (i.e., the concentration of TNF-α was 0 ng/mL) served as a basis for calculating the relative MMPs and intracellular ROSs of the other groups. The results are shown in FIG. 1 (all the data are presented as average values±SEM, n=6, analyzed with a t-test, *p<0.05, ***p<0.001).

`C[C@@H]1O[C@@H](O[C@@H]2[C@@H](O)[C@H](OCCc3ccc(O)c(O)c3)O[C@H](COC(=O)/C=C/c3ccc(O)c(O)c3)[C@H]2O)[C@H](O)[C@H](O)[C@H]1O` [isoacteoside] was tested, and the “decrease in the MMP induced by TNF-α” value ([1]; 100 μg/mL) was “significantly ameliorated”, the survival rate ([1]; 5 to 100 μg/mL) was “increased” and the “intracellular ROS” value ([1]; 10 to 100 μg/mL) was “significantly decreased”.
With `C[C@@H]1O[C@@H](O[C@@H]2[C@@H](O)[C@H](OCCc3ccc(O)c(O)c3)O[C@H](CO)[C@H]2OC(=O)/C=C/c2ccc(O)c(O)c2)[C@H](O)[C@H](O)[C@H]1O` [verbascoside] the “protection of C2C12 cells against TNF-α induced injury (survival rate, MMP, ROS)” value ([1]; 1 to 100 μg/mL) was “could not protect”.
For TNF-α, the “intracellular reactive oxidative stress (ROS)” value ([2]; 5 ng/mL TNF-α) was “slightly increased”, the “mitochondrial membrane potential (MMP)” value ([2]; 5 ng/mL TNF-α) was “significantly decreased” and the “intracellular reactive oxidative stress (ROS)” value ([2]; 10 ng/mL TNF-α) was “significantly increased”. The “mitochondrial membrane potential (MMP)” value ([2]; 10 ng/mL TNF-α) was “significantly decreased”.
With echinacoside the “concentration at which the protective effect (survival rate) became significant” value ([1]; 5 to 500 μg/mL tested) was 100 µg/mL, the “protective effect on MMP” value ([1]; 5 to 500 μg/mL) was “did not exhibit protective effect” and the “protective effect on ROS” value ([1]; 5 to 500 μg/mL) was “did not exhibit protective effect”. For the same compound, the “protective effect (survival rate)” value ([1]; lower concentration within 5 to 500 μg/mL) was “not significant”.
